Patent US12263172B2, “Toll-like receptor agonists for use in the treatment of hepatitis b” (priority 2019, dated 2025)
“And” between values parts separate entries of the source, which are not always exact repeats. Equal entries are not always repeated.

Experiment: Phase 1 single-ascending dose (Part 1): safety and tolerability in healthy adults
Assay type: in vivo, human
Procedure: This ongoing trial is a Phase 1 randomized, double-blind, placebo-controlled study in male and female healthy adult volunteers aged 18-55 years. All volunteers provided written, informed consent.
All volunteers were followed up for 4 weeks and safety and tolerability were continuously assessed throughout the study. All adverse events (AEs) were recorded from the time of consent to the completion visit and were graded using the DAIDS toxicity grading scale. Volunteers also underwent physical examinations, electrocardiograms, vital sign checks and clinical laboratory parameters (chemistry, haematology, urinalysis).

CCCCOc1nc(N)c2[nH]cc(Cc3ccc(CN4CCCC4)cc3)c2n1 [Compound 4]
subjects with at least one SAE (single dose 1.25 mg fasted): 0 n (%)
subjects with at least one fatal AE (single dose 1.25 mg fasted): 0 n (%)
subjects with at least one grade 1 AE (single dose 1.25 mg fasted): 7 (87.5%) n (%)
subjects with at least one grade 2 AE (single dose 1.25 mg fasted): 1 (12.5%) n (%)
subjects with at least one grade 3 or 4 AE (single dose 1.25 mg fasted): 0 n (%)
subjects with fever and flu-like symptoms (flu-like AEs and lymphopenia) (single dose 1.25 mg fasted): 3 and 3/8
treatment-related AE: Any AE (single dose 1.25 mg fasted): 6 (75.0%) n (%)
treatment-related AE: Chills (single dose 1.25 mg fasted): 0 n (%)
treatment-related AE: Dizziness (single dose 1.25 mg fasted): 0 n (%)
treatment-related AE: General disorders and administration site conditions (single dose 1.25 mg fasted): 3 (37.5%) n (%)
treatment-related AE: Headache (single dose 1.25 mg fasted): 4 (50.0%) n (%)
treatment-related AE: Hypertension (single dose 1.25 mg fasted): 0 n (%)
treatment-related AE: Myalgia (single dose 1.25 mg fasted): 3 (37.5%) n (%)
treatment-related AE: Nervous system disorders (single dose 1.25 mg fasted): 4 (50.0%) n (%)
treatment-related AE: Oropharyngeal pain (single dose 1.25 mg fasted): 2 (25.0%) n (%)
treatment-related AE: Pyrexia (single dose 1.25 mg fasted): 3 (37.5%) n (%)
treatment-related AE: Respiratory, thoracic and mediastinal disorders (single dose 1.25 mg fasted): 2 (25.0%) n (%)
treatment-related AE: Vascular disorder (single dose 1.25 mg fasted): 0 n (%)
vital signs: Respiratory rate (brpm) Grade 1 (single dose 1.25 mg fasted): 7 (87.5%) n (%)
vital signs: Respiratory rate (brpm) Grade 2 (single dose 1.25 mg fasted): 0 n (%)
vital signs: SaO2 (%) 90% to <95% (single dose 1.25 mg fasted): 3 (37.5%) n (%)
vital signs: SaO2 (%) 95% to <98% (single dose 1.25 mg fasted): 3 (37.5%) n (%)
vital signs: Standing DBP (mmHg) Grade 1 (single dose 1.25 mg fasted): 1 (12.5%) n (%)
vital signs: Standing DBP (mmHg) Grade 2 (single dose 1.25 mg fasted): 2 (25.0%) n (%)
vital signs: Standing DBP (mmHg) Grade 3 (single dose 1.25 mg fasted): 0 n (%)
vital signs: Standing DBP (mmHg) Low (single dose 1.25 mg fasted): 0 n (%)
vital signs: Standing SBP (mmHg) Grade 1 (single dose 1.25 mg fasted): 1 (12.5%) n (%)
vital signs: Standing SBP (mmHg) Low (single dose 1.25 mg fasted): 1 (12.5%) n (%)
vital signs: Standing pulse (bpm) High (single dose 1.25 mg fasted): 1 (12.5%) n (%)
vital signs: Standing pulse (bpm) Low (single dose 1.25 mg fasted): 0 n (%)
vital signs: Supine DBP (mmHg) Grade 1 (single dose 1.25 mg fasted): 1 (12.5%) n (%)
vital signs: Supine DBP (mmHg) Low (single dose 1.25 mg fasted): 0 n (%)
vital signs: Supine SBP (mmHg) Grade 1 (single dose 1.25 mg fasted): 1 (12.5%) n (%)
vital signs: Supine SBP (mmHg) Grade 2 (single dose 1.25 mg fasted): 0 n (%)
vital signs: Supine SBP (mmHg) Low (single dose 1.25 mg fasted): 1 (12.5%) n (%)
vital signs: Supine pulse (bpm) Low (single dose 1.25 mg fasted): 0 n (%)
↑ AST Grade 3 (laboratory abnormality) (single dose 1.25 mg fasted): 0 n (%)
↑ Amylase Grade 2 (laboratory abnormality) (single dose 1.25 mg fasted): 0 n (%)
↑ Cholesterol Grade 2 (laboratory abnormality) (single dose 1.25 mg fasted): 1 (17) n (%)
↑ Creatine kinase Grade 2 (laboratory abnormality) (single dose 1.25 mg fasted): 0 n (%)
↑ Creatine kinase Grade 4 (laboratory abnormality) (single dose 1.25 mg fasted): 0 n (%)
↑ Glucose Grade 2 (laboratory abnormality) (single dose 1.25 mg fasted): 1 (13) n (%)
↑ LDL cholesterol Grade 2 (laboratory abnormality) (single dose 1.25 mg fasted): 0 n (%)
↑ LDL cholesterol Grade 3 (laboratory abnormality) (single dose 1.25 mg fasted): 1 (13) n (%)
↑ Lipase Grade 2 (laboratory abnormality) (single dose 1.25 mg fasted): 0 n (%)
↑ Pancreatic amylase Grade 2 (laboratory abnormality) (single dose 1.25 mg fasted): 0 n (%)
↑ Potassium Grade 2 (laboratory abnormality) (single dose 1.25 mg fasted): 0 n (%)
↑ Sodium Grade 2 (laboratory abnormality) (single dose 1.25 mg fasted): 1 (13) n (%)
↑ Triglycerides Grade 2 (laboratory abnormality) (single dose 1.25 mg fasted): 4 (50) n (%)
↑ Triglycerides Grade 3 (laboratory abnormality) (single dose 1.25 mg fasted): 0 n (%)
↓ Bicarbonate Grade 2 (laboratory abnormality) (single dose 1.25 mg fasted): 0 n (%)
↓ Lymphocytes Grade 2 (laboratory abnormality) (single dose 1.25 mg fasted): 1 (13) n (%)
↓ Lymphocytes Grade 4 (laboratory abnormality) (single dose 1.25 mg fasted): 0 n (%)
↓ Neutrophils Grade 2 (laboratory abnormality) (single dose 1.25 mg fasted): 0 n (%)
↓ Phosphate Grade 2 (laboratory abnormality) (single dose 1.25 mg fasted): 0 n (%)
Any AE (treatment-emergent) (single dose 1.25 mg fed): 6 (86) n (%)
Back pain Grade 1 (treatment-emergent AE) (single dose 1.25 mg fed): 0 n (%)
Chills Grade 1 (treatment-emergent AE) (single dose 1.25 mg fed): 0 n (%)
Contact dermatitis Grade 1 (treatment-emergent AE) (single dose 1.25 mg fed): 0 n (%)
Dizziness Grade 1 (treatment-emergent AE) (single dose 1.25 mg fed): 0 n (%)
ECG actual value: Heart rate (bpm) Low (single dose 1.25 mg fed): 0 n (%)
ECG actual value: QRS (ms) High (single dose 1.25 mg fed): 0 n (%)
ECG actual value: QTcB (ms) ]450; 480] (single dose 1.25 mg fed): 0 n (%)
ECG actual value: QTcF (ms) ]450; 480] (single dose 1.25 mg fed): 0 n (%)
ECG change from reference: QTcB (ms) [30; 60] (single dose 1.25 mg fed): 2 (28.6%) n (%)
ECG change from reference: QTcF (ms) [30; 60] (single dose 1.25 mg fed): 1 (14.3%) n (%)
Headache Grade 1 (treatment-emergent AE) (single dose 1.25 mg fed): 1 (14) n (%)
Headache Grade 2 (treatment-emergent AE) (single dose 1.25 mg fed): 0 n (%)
Hypertension Grade 1 (treatment-emergent AE) (single dose 1.25 mg fed): 0 n (%)
Hypertension Grade 2 (treatment-emergent AE) (single dose 1.25 mg fed): 0 n (%)
Myalgia Grade 1 (treatment-emergent AE) (single dose 1.25 mg fed): 0 n (%)
Oropharyngeal pain Grade 1 (treatment-emergent AE) (single dose 1.25 mg fed): 2 (29) n (%)
Pyrexia Grade 1 (treatment-emergent AE) (single dose 1.25 mg fed): 0 n (%)
Pyrexia Grade 2 (treatment-emergent AE) (single dose 1.25 mg fed): 0 n (%)
URTI Grade 1 (treatment-emergent AE) (single dose 1.25 mg fed): 1 (14) n (%)
lab toxicity: Amylase (U/L), upwards, Grade 1 (single dose 1.25 mg fed): 1 (14.3%) n (%)
lab toxicity: Amylase (U/L), upwards, Grade 2 (single dose 1.25 mg fed): 0 n (%)
lab toxicity: Cholesterol (mmol/L), upwards, Grade 1 (single dose 1.25 mg fed): 0 n (%)
lab toxicity: Cholesterol (mmol/L), upwards, Grade 2 (single dose 1.25 mg fed): 0 n (%)
lab toxicity: Creatine kinase (U/L), upwards, Grade 1 (single dose 1.25 mg fed): 0 n (%)
lab toxicity: Creatine kinase (U/L), upwards, Grade 2 (single dose 1.25 mg fed): 0 n (%)
lab toxicity: Creatine kinase (U/L), upwards, Grade 4 (single dose 1.25 mg fed): 0 n (%)
lab toxicity: Glucose (mmol/L), upwards, Grade 1 (single dose 1.25 mg fed): 2 (28.6%) n (%)
lab toxicity: Glucose (mmol/L), upwards, Grade 2 (single dose 1.25 mg fed): 0 n (%)
lab toxicity: LDL cholesterol (mmol/L, calculated), upwards, Grade 1 (single dose 1.25 mg fed): 1 (14.3%) n (%)
lab toxicity: LDL cholesterol (mmol/L, calculated), upwards, Grade 2 (single dose 1.25 mg fed): 0 n (%)
lab toxicity: LDL cholesterol (mmol/L, calculated), upwards, Grade 3 (single dose 1.25 mg fed): 0 n (%)
lab toxicity: Lymphocytes (giga/L), downwards, Grade 2 (single dose 1.25 mg fed): 0 n (%)
lab toxicity: Lymphocytes (giga/L), downwards, Grade 4 (single dose 1.25 mg fed): 0 n (%)
lab toxicity: Neutrophils, segmented (giga/L), downwards, Grade 1 (single dose 1.25 mg fed): 0 n (%)
lab toxicity: Neutrophils, segmented (giga/L), downwards, Grade 2 (single dose 1.25 mg fed): 0 n (%)
lab toxicity: Platelets (giga/L), downwards, Grade 1 (single dose 1.25 mg fed): 0 n (%)
lab toxicity: Sodium (mmol/L), upwards, Grade 1 (single dose 1.25 mg fed): 3 (42.9%) n (%)
lab toxicity: Sodium (mmol/L), upwards, Grade 2 (single dose 1.25 mg fed): 0 n (%)
lab toxicity: Triglycerides (mmol/L), upwards, Grade 1 (single dose 1.25 mg fed): 3 (42.9%) n (%)
lab toxicity: Triglycerides (mmol/L), upwards, Grade 2 (single dose 1.25 mg fed): 1 (14.3%) n (%)
lab toxicity: Triglycerides (mmol/L), upwards, Grade 3 (single dose 1.25 mg fed): 0 n (%)
lab toxicity: Urate (μmol/L), upwards, Grade 1 (single dose 1.25 mg fed): 0 n (%)
subjects with at least one AE (single dose 1.25 mg fed): 6 (85.7%) n (%)
subjects with at least one AE for which any study drug or study was permanently stopped (single dose 1.25 mg fed): 0 n (%)
subjects with at least one AE for which any study drug or study was temporarily stopped (single dose 1.25 mg fed): 0 n (%)
subjects with at least one AE possibly related to any study drug (single dose 1.25 mg fed): 1 (14.3%) n (%)
subjects with at least one AE possibly, probably or very likely related to any study drug (single dose 1.25 mg fed): 1 (14.3%) n (%)
subjects with at least one AE probably related to any study drug (single dose 1.25 mg fed): 0 n (%)
subjects with at least one AE very likely related to any study drug (single dose 1.25 mg fed): 0 n (%)
subjects with at least one SAE (single dose 1.25 mg fed): 0 n (%)
subjects with at least one fatal AE (single dose 1.25 mg fed): 0 n (%)
subjects with at least one grade 1 AE (single dose 1.25 mg fed): 6 (85.7%) n (%)
subjects with at least one grade 2 AE (single dose 1.25 mg fed): 0 n (%)
subjects with at least one grade 3 or 4 AE (single dose 1.25 mg fed): 0 n (%)
treatment-related AE: Any AE (single dose 1.25 mg fed): 1 (14.3%) n (%)
treatment-related AE: Chills (single dose 1.25 mg fed): 0 n (%)
treatment-related AE: Dizziness (single dose 1.25 mg fed): 0 n (%)
treatment-related AE: General disorders and administration site conditions (single dose 1.25 mg fed): 0 n (%)
treatment-related AE: Headache (single dose 1.25 mg fed): 0 n (%)
treatment-related AE: Hypertension (single dose 1.25 mg fed): 0 n (%)
treatment-related AE: Myalgia (single dose 1.25 mg fed): 0 n (%)
treatment-related AE: Nervous system disorders (single dose 1.25 mg fed): 0 n (%)
treatment-related AE: Oropharyngeal pain (single dose 1.25 mg fed): 1 (14.3%) n (%)
treatment-related AE: Pyrexia (single dose 1.25 mg fed): 0 n (%)
treatment-related AE: Respiratory, thoracic and mediastinal disorders (single dose 1.25 mg fed): 1 (14.3%) n (%)
treatment-related AE: Vascular disorder (single dose 1.25 mg fed): 0 n (%)
vital signs: Respiratory rate (brpm) Grade 1 (single dose 1.25 mg fed): 3 (42.9%) n (%)
vital signs: Respiratory rate (brpm) Grade 2 (single dose 1.25 mg fed): 0 n (%)
vital signs: SaO2 (%) 90% to <95% (single dose 1.25 mg fed): 1 (14.3%) n (%)
vital signs: SaO2 (%) 95% to <98% (single dose 1.25 mg fed): 3 (42.9%) n (%)
vital signs: Standing DBP (mmHg) Grade 1 (single dose 1.25 mg fed): 1 (14.3%) n (%)
vital signs: Standing DBP (mmHg) Grade 2 (single dose 1.25 mg fed): 2 (28.6%) n (%)
vital signs: Standing DBP (mmHg) Grade 3 (single dose 1.25 mg fed): 1 (14.3%) n (%)
vital signs: Standing DBP (mmHg) Low (single dose 1.25 mg fed): 0 n (%)
vital signs: Standing SBP (mmHg) Grade 1 (single dose 1.25 mg fed): 3 (42.9%) n (%)
vital signs: Standing SBP (mmHg) Low (single dose 1.25 mg fed): 0 n (%)
vital signs: Standing pulse (bpm) High (single dose 1.25 mg fed): 1 (14.3%) n (%)
vital signs: Standing pulse (bpm) Low (single dose 1.25 mg fed): 0 n (%)
vital signs: Supine DBP (mmHg) Grade 1 (single dose 1.25 mg fed): 1 (14.3%) n (%)
vital signs: Supine DBP (mmHg) Low (single dose 1.25 mg fed): 0 n (%)
